Each block holds one compound with its values, some of them ahead of it.
How the values were obtained:
[1] = Antiproliferative activity against human WM3629 cells by MTT/CellTiter 96 assay; format: functional
[2] = Antiproliferative activity against human A375P cells by MTT assay; format: functional
[3] = Selectivity ratio of GI50 for human A375P cells to GI50 for human WM3629 cells; format: functional
[4] = biological target: Serine/threonine-protein kinase PLK1 (Homo sapiens) (UniProt P53350); experiment: Inhibition of human PLK1 at 10 uM
Homo sapiens = species on record: Homo sapiens; experiment: Inhibition of human PKA at 10 uM
[5] = biological target: Mitogen-activated protein kinase 14 (Homo sapiens) (UniProt Q16539); experiment: Inhibition of human MAPK14 at 10 uM
Chain of Mitogen-activated protein kinase 14 (Homo sapiens) (Q16539 whole entry): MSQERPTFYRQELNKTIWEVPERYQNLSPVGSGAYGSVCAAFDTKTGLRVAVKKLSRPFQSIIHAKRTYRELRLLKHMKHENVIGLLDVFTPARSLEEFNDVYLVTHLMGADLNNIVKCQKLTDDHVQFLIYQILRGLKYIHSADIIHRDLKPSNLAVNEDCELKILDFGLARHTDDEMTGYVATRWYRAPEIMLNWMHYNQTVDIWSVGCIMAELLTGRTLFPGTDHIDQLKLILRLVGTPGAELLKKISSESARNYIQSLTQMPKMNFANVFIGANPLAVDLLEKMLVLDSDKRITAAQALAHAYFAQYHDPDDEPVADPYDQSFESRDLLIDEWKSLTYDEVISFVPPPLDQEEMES

[6] = biological target: Dual specificity mitogen-activated protein kinase kinase 1 (Homo sapiens) (UniProt Q02750); experiment: Inhibition of human MEK1 at 10 uM
[7] = biological target: Serine/threonine-protein kinase mTOR (Homo sapiens) (UniProt P42345); experiment: Inhibition of human mTOR at 10 uM
[8] = biological target: Tyrosine-protein kinase Lyn (Homo sapiens) (UniProt P07948); experiment: Inhibition of human LYN at 10 uM
[9] = biological target: Tyrosine-protein kinase Lck (Homo sapiens) (UniProt P06239); experiment: Inhibition of human LCK at 10 uM
[10] = biological target: Vascular endothelial growth factor receptor 2 (Homo sapiens) (UniProt P35968); experiment: Inhibition of human KDR at 10 uM
[11] = biological target: Mitogen-activated protein kinase 10 (Homo sapiens) (UniProt P53779); experiment: Inhibition of human JNK3 at 10 uM
Chain of Mitogen-activated protein kinase 10 (Homo sapiens) (P53779 whole entry): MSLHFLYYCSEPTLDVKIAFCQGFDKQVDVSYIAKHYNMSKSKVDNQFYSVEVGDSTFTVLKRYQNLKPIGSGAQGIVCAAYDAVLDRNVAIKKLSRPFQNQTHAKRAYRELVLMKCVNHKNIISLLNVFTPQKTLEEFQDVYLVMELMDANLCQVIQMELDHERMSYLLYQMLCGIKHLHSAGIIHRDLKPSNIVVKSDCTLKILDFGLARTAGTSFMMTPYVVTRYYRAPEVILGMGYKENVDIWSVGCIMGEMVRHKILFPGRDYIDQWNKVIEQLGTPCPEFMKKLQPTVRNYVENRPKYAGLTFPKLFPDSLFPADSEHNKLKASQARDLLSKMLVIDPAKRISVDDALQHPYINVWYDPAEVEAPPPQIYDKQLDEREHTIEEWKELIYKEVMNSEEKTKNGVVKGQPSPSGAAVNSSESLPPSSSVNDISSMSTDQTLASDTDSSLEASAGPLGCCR

[12] = biological target: Tyrosine-protein kinase JAK3 (Homo sapiens) (UniProt P52333); experiment: Inhibition of human JAK3 at 10 uM
Chain of Tyrosine-protein kinase JAK3 (Homo sapiens) (P52333 whole entry): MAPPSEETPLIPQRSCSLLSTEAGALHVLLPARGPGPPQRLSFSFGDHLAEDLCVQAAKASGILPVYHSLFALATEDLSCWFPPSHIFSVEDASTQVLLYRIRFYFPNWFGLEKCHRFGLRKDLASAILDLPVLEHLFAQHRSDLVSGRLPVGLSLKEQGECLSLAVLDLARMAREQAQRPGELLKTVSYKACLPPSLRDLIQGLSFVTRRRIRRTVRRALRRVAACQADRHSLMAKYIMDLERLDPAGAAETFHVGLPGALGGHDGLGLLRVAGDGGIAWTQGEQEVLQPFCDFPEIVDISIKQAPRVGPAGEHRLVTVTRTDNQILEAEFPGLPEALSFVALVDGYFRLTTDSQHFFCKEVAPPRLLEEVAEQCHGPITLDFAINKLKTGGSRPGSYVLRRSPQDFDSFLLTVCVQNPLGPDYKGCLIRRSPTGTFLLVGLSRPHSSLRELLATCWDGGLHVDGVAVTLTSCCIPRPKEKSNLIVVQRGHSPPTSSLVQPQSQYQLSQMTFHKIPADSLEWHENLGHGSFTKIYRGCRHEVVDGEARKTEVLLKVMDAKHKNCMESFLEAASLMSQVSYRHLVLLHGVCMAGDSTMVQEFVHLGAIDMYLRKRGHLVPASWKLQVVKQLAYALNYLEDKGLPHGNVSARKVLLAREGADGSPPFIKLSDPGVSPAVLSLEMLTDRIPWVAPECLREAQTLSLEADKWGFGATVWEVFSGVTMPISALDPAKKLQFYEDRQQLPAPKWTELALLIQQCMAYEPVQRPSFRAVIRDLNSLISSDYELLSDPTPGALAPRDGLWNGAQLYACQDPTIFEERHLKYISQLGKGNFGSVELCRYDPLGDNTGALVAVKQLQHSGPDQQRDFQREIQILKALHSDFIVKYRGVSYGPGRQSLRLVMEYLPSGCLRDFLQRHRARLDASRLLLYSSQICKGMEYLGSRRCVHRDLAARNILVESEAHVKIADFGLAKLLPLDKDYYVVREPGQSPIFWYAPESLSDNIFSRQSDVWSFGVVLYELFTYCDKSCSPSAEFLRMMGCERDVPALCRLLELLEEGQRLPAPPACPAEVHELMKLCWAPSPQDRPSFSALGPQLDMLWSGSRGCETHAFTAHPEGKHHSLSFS

[13] = biological target: Insulin-like growth factor 1 receptor (Homo sapiens) (UniProt P08069); experiment: Inhibition of human IGF1R at 10 uM
[14] = biological target: Glycogen synthase kinase-3 beta (Homo sapiens) (UniProt P49841); experiment: Inhibition of human GSK3beta at 10 uM
[15] = biological target: Macrophage colony-stimulating factor 1 receptor (Homo sapiens) (UniProt P07333); experiment: Inhibition of human FMS at 10 uM
[16] = biological target: Receptor-type tyrosine-protein kinase FLT3 (Homo sapiens) (UniProt P36888); experiment: Inhibition of human FLT3 at 10 uM
[17] = biological target: Fibroblast growth factor receptor 3 (Homo sapiens) (UniProt P22607); experiment: Inhibition of human FGFR3 at 10 uM
[18] = biological target: Fibroblast growth factor receptor 2 (Homo sapiens) (UniProt P21802); experiment: Inhibition of human FGFR2 at 10 uM
[19] = biological target: Focal adhesion kinase 1 (Homo sapiens) (UniProt Q05397); experiment: Inhibition of human FAK at 10 uM
[20] = biological target: Mitogen-activated protein kinase 3 (Homo sapiens) (UniProt P27361); experiment: Inhibition of human ERK1 at 10 uM
[21] = biological target: Epidermal growth factor receptor (Homo sapiens) (UniProt P00533); experiment: Inhibition of human EGFR at 10 uM
[22] = biological target: Cyclin-dependent kinase 2/cyclin E1 (Homo sapiens) (UniProt P24864+P24941); experiment: Inhibition of human CDK2/cyclin E at 10 uM; format: protein-complex assay
[23] = biological target: Cyclin-dependent kinase 1/cyclin B1 (Homo sapiens) (UniProt P06493+P14635); experiment: Inhibition of human CDK1/cyclin B at 10 uM; format: protein-complex assay
[24] = biological target: Proto-oncogene tyrosine-protein kinase Src (Homo sapiens) (UniProt P12931); experiment: Inhibition of human cSRC at 10 uM
[25] = biological target: Hepatocyte growth factor receptor (Homo sapiens) (UniProt P08581); experiment: Inhibition of human cMET at 10 uM
[26] = biological target: Mast/stem cell growth factor receptor Kit (Homo sapiens) (UniProt P10721); experiment: Inhibition of human cKIT at 10 uM
[27] = biological target: Aurora kinase A (Homo sapiens) (UniProt O14965); experiment: Inhibition of human Aurora A at 10 uM
[28] = biological target: ALK tyrosine kinase receptor (Homo sapiens) (UniProt Q9UM73); experiment: Inhibition of human ALK at 10 uM
Chain of ALK tyrosine kinase receptor (Homo sapiens) (Q9UM73 19-1620 limits assumed): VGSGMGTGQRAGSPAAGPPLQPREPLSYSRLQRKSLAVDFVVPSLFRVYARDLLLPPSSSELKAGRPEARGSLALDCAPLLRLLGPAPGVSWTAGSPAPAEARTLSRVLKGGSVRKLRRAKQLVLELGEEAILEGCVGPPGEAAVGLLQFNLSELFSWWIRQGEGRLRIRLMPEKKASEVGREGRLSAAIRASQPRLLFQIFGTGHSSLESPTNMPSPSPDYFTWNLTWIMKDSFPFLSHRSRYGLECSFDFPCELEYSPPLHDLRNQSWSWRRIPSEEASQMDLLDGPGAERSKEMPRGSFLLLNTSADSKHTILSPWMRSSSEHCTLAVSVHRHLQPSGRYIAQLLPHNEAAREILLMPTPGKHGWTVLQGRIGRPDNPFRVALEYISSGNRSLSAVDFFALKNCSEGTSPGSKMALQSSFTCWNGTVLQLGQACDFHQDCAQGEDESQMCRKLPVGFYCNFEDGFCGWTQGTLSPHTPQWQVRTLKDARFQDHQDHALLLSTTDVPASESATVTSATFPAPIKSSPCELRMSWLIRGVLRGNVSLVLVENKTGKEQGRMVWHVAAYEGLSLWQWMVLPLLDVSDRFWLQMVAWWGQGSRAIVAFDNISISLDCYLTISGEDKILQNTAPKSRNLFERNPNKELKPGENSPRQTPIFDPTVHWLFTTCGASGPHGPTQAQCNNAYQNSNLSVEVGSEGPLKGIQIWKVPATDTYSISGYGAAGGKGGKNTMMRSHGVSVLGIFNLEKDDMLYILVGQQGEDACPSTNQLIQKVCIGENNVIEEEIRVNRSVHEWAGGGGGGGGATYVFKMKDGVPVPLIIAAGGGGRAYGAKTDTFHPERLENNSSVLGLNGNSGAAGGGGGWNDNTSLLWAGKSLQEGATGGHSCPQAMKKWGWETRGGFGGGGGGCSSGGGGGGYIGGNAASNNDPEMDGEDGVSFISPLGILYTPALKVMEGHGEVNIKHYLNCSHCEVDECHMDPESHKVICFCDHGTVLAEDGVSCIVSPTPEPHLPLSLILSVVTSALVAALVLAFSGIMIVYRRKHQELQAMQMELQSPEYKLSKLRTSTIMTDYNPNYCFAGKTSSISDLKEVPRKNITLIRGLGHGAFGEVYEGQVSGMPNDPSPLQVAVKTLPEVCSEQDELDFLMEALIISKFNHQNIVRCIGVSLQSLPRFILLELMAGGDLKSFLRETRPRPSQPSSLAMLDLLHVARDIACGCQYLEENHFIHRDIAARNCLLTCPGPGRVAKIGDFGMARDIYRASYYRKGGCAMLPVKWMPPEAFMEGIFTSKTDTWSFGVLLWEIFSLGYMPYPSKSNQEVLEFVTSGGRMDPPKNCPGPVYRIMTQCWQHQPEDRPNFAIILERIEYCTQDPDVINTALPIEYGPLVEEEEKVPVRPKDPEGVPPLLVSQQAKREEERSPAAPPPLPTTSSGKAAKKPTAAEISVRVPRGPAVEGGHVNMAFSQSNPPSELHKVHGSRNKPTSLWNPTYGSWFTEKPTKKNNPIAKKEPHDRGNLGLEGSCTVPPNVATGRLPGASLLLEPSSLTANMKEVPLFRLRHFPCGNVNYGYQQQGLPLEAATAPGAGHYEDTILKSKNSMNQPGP

[29] = biological target: RAC-alpha serine/threonine-protein kinase (Homo sapiens) (UniProt P31749); experiment: Inhibition of human AKT1 at 10 uM
[30] = biological target: Tyrosine-protein kinase ABL1 (Homo sapiens) (UniProt P00519); experiment: Inhibition of human ABL1 at 10 uM
[31] = biological target: Macrophage-stimulating protein receptor (Homo sapiens) (UniProt Q04912); experiment: Inhibition of human RON at 10 uM
[32] = biological target: Proto-oncogene tyrosine-protein kinase ROS (Homo sapiens) (UniProt P08922); experiment: Inhibition of human ROS1 at 10 uM
[33] = biological target: Tyrosine-protein kinase SYK (Homo sapiens) (UniProt P43405); experiment: Inhibition of human SYK at 10 uM
[34] = biological target: Serine/threonine-protein kinase B-raf (Homo sapiens, UniProt P15056, V600E); experiment: Inhibition of BRAF V599E mutant (unknown origin)
[35] = biological target: T1, Serine/threonine-protein kinase B-raf (Homo sapiens, UniProt P15056); experiment: Inhibition of BRAF (unknown origin)
T1 sequence (P15056 whole entry): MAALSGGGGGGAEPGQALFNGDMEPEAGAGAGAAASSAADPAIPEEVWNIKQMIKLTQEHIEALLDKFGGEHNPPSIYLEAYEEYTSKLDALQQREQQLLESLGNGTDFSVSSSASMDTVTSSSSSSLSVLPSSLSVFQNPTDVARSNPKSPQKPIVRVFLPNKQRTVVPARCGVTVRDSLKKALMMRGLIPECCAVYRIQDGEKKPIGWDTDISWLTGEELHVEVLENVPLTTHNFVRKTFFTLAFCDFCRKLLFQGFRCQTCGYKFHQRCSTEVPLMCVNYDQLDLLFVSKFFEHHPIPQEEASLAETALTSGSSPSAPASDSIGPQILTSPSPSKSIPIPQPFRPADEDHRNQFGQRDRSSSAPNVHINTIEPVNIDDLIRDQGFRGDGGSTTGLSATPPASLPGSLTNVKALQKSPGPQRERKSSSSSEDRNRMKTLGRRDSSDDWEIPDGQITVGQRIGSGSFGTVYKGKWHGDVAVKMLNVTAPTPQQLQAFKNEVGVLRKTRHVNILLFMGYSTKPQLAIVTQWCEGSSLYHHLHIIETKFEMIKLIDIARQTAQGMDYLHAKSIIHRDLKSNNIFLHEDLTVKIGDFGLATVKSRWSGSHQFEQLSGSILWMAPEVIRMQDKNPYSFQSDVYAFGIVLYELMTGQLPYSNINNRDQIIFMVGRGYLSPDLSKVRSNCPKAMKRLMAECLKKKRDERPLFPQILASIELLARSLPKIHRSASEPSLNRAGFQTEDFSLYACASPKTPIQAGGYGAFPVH

[36] = biological target: T2, RAF proto-oncogene serine/threonine-protein kinase (Homo sapiens, UniProt P04049); experiment: Inhibition of CRAF (unknown origin)
T2 sequence (P04049 whole entry): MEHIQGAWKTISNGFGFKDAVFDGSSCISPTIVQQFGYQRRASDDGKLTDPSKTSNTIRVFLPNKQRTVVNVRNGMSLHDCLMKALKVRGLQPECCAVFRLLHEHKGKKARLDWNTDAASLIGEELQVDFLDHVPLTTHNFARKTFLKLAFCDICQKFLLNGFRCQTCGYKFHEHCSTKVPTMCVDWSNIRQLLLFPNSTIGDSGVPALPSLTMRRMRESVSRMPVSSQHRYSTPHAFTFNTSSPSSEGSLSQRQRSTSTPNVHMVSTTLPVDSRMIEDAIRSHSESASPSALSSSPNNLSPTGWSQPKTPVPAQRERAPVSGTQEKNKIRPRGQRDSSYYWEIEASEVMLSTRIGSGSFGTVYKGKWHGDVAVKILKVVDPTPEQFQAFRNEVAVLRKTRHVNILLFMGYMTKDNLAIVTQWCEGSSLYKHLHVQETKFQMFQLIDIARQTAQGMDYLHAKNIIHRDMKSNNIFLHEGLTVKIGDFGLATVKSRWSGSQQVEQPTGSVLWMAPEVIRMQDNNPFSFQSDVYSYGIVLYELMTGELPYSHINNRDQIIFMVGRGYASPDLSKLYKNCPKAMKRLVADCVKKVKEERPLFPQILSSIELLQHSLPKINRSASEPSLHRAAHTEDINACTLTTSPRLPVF

[37] = biological target: T2, RAF proto-oncogene serine/threonine-protein kinase; conditions: 10 uM
Description: Inhibition of human RAF1 at 10 uM

[38] = test system: Serine/threonine-protein kinase B-raf (Homo sapiens), P15056 [V600E]; conditions: 10 uM
Chain of Serine/threonine-protein kinase B-raf (Homo sapiens), P15056 [V600E] (P15056 whole entry V600E): as the sequence (P15056 whole entry) above, with V600E counted along it
Description: Inhibition of human BRAF V599E mutant at 10 uM

[39] = biological target: T1, Serine/threonine-protein kinase B-raf; conditions: 10 uM
Description: Inhibition of human BRAF at 10 uM

SMILES: CNC(=O)c1cc(Oc2ccc(NC(=O)Nc3ccc(Cl)c(C(F)(F)F)c3)cc2)ccn1 [SORAFENIB]
- GI50 [1]: 0.78 µM
- GI50 [2]: 2.58 µM

SMILES: C[C@H](NC(=O)c1[nH]nc2cc(NCc3cccc(NC(=O)c4cnccn4)c3)ccc12)C(N)=O
- GI50 [1]: 7.86 µM
- GI50 [2]: 19.2 µM

SMILES: C[C@H](NC(=O)c1[nH]nc2cc(NC(=O)c3cc4ccccc4s3)ccc12)C(N)=O
- GI50 [1]: > 30 µM
- GI50 [2]: 28.2 µM

SMILES: Cc1cncn1-c1cc(C(=O)Nc2ccc3c(C(=O)N[C@@H](C)C(N)=O)[nH]nc3c2)cc(C(F)(F)F)c1
- GI50 [1]: 12.9 µM
- GI50 [2]: 7.19 µM

SMILES: C[C@H](NC(=O)c1[nH]nc2cc(NC(=O)c3ccc(Cl)c(C(F)(F)F)c3)ccc12)C(N)=O
- GI50 [1]: 9.13 µM
- GI50 [2]: 10.5 µM

SMILES: C[C@H](NC(=O)c1[nH]nc2cc(NCc3cccc(NC(=O)c4cc(N5CCOCC5)cc(C(F)(F)F)c4)c3)ccc12)C(N)=O
- GI50 [1]: 2.25 µM
- GI50 [2]: 25.6 µM

SMILES: C[C@H](NC(=O)c1[nH]nc2cc(NC(=O)c3ccccc3)ccc12)C(N)=O
- GI50 [1]: > 30 µM
- GI50 [2]: > 30 µM

SMILES: C[C@H](NC(=O)c1[nH]nc2cc(NC(=O)c3cccc(C(C)(C)C#N)c3)ccc12)C(N)=O
- GI50 [1]: > 30 µM
- GI50 [2]: > 30 µM

SMILES: COc1cccc(CNc2ccc3c(C(=O)N[C@@H](C)C(N)=O)[nH]nc3c2)c1
- GI50 [1]: 7.19 µM
- GI50 [2]: 17.8 µM

SMILES: C[C@H](NC(=O)c1[nH]nc2cc(NC(=O)Nc3ccc(C(F)(F)F)c(N4CCOCC4)c3)ccc12)C(N)=O
- GI50 [1]: 3.51 µM
- GI50 [2]: 10.1 µM

SMILES: C[C@H](NC(=O)c1[nH]nc2cc(NC(=O)Nc3cccc(C(F)(F)F)c3)ccc12)C(N)=O
- GI50 [1]: 6.43 µM
- GI50 [2]: 8.41 µM

SMILES: C[C@H](NC(=O)c1[nH]nc2cc(NC(=O)c3ccc(C(F)(F)F)c(N4CCOCC4)c3)ccc12)C(N)=O
- GI50 [1]: 7.37 µM
- GI50 [2]: 28.3 µM

SMILES: C[C@H](NC(=O)c1[nH]nc2cc(NCc3ccc(F)cc3)ccc12)C(N)=O
- GI50 [1]: 9.05 µM
- GI50 [2]: 10.1 µM

SMILES: C[C@H](NC(=O)c1[nH]nc2cc(NC(=O)c3cccc(C(F)(F)F)c3)ccc12)C(N)=O
- GI50 [1]: > 30 µM
- GI50 [2]: > 30 µM

SMILES: COc1ccc(-c2ccc(C(=O)Nc3ccc4c(C(=O)N[C@@H](C)C(N)=O)[nH]nc4c3)o2)cc1
- GI50 [1]: 7.86 µM
- GI50 [2]: 19.2 µM

SMILES: C[C@H](NC(=O)c1[nH]nc2cc(NC(=O)c3cc(N4CCOCC4)cc(C(F)(F)F)c3)ccc12)C(N)=O
- GI50 [1]: > 30 µM
- GI50 [2]: > 30 µM

SMILES: C[C@H](NC(=O)c1[nH]nc2cc(NC(=O)Nc3ccc(Cl)c(C(F)(F)F)c3)ccc12)C(N)=O
- GI50 [1]: 6.59 µM
- GI50 [2]: 8.58 µM

SMILES: C[C@H](NC(=O)c1[nH]nc2cc(NCc3cccc(NC(=O)c4cccc(C(C)(C)C#N)c4)c3)ccc12)C(N)=O
- GI50 [1]: 7.37 µM
- GI50 [2]: 28.3 µM

- inhibition [4]: 9.04%
- inhibition (Homo sapiens): 0%
- inhibition [5]: 11.4%
- inhibition [6]: 0%
- inhibition [7]: 0%
- inhibition [8]: 5.4%
- inhibition [9]: 7.62%
- inhibition [10]: 0%
- inhibition [11]: 0%
- inhibition [12]: 0%
- inhibition [13]: 0%
- inhibition [14]: 12.3%
- inhibition [15]: 10.6%
- inhibition [16]: 1.16%
- inhibition [17]: 14.9%
- inhibition [18]: 9.75%
- inhibition [19]: 8.88%
- inhibition [20]: 4.2%
- inhibition [21]: 0%
- inhibition [22]: 3.1%
- inhibition [23]: 8.36%
- inhibition [24]: 0%
- inhibition [25]: 9.84%
- inhibition [26]: 22.2%
- inhibition [27]: 4.99%
- inhibition [28]: 0%
- inhibition [29]: 7.08%
- inhibition [30]: 2.44%
- inhibition [31]: 0.7%
- inhibition [32]: 1.49%
- inhibition [33]: 2.89%
- IC50 [34]: 7.82 µM
- IC50 [35]: 9.45 µM
- IC50 [36]: 38.6 µM
- inhibition [37]: 99.4%
- inhibition [38]: 19.5%
- inhibition [39]: 21.1%
SMILES: Cc1cncn1-c1cc(C(=O)Nc2cccc(CNc3ccc4c(C(=O)N[C@@H](C)C(N)=O)[nH]nc4c3)c2)cc(C(F)(F)F)c1
- RatioGI50 [3]: 25
- GI50 [1]: 0.65 µM
- GI50 [2]: 15.9 µM

SMILES: COc1ccc(-n2ncc(C(=O)Nc3ccc4c(C(=O)N[C@@H](C)C(N)=O)[nH]nc4c3)c2C(F)(F)F)cc1
- GI50 [1]: 3.28 µM
- GI50 [2]: 24.6 µM

SMILES: C[C@H](NC(=O)c1[nH]nc2cc(NC(=O)Nc3ccc(N4CCOCC4)cc3)ccc12)C(N)=O
- GI50 [1]: 9.29 µM
- GI50 [2]: 12.3 µM

SMILES: C[C@H](NC(=O)c1[nH]nc2cc(NC(=O)c3ccc4ncccc4c3)ccc12)C(N)=O
- GI50 [1]: > 30 µM
- GI50 [2]: > 30 µM

SMILES: C[C@H](NC(=O)c1[nH]nc2cc(NC(=O)C(c3ccccc3)c3ccccc3)ccc12)C(N)=O
- GI50 [1]: > 30 µM
- GI50 [2]: > 30 µM

SMILES: C[C@H](NC(=O)c1[nH]nc2cc(NCc3cccc(NC(=O)c4ccc(Cl)c(C(F)(F)F)c4)c3)ccc12)C(N)=O
- GI50 [1]: 4.54 µM
- GI50 [2]: 7.19 µM

Source: ChEMBL document CHEMBL3763132, “Discovery of highly selective CRAF inhibitors, 3-carboxamido-2H-indazole-6-arylamide: In silico FBLD design, synthesis and evaluation” (Bioorg Med Chem Lett, 2016)
